Measurements reported in paper PMC6199309, “A therapeutic approach to pantothenate kinase associated neurodegeneration” (Nature Communications, 2018).

Assays:
Format in all cases: binding
[1] = molecular target: T1, DCAMKL1 (Homo sapiens, UniProt O15075); test: KINOMEscan; details: read-out: %Ctrl @ 10000nM
T1 construct: purchased DiscoverX KINOMEscan

[2] = molecular target: T2, PAK1 (Homo sapiens, UniProt Q13153); test: KINOMEscan; details: read-out: %Ctrl @ 10000nM
T2 construct: purchased DiscoverX KINOMEscan

[3] = molecular target: T3, TYRO3 (Homo sapiens, UniProt Q06418); test: KINOMEscan; details: read-out: %Ctrl @ 10000nM
T3 construct: DNA label for qPCR (T7 phage fusion or DNA tag); purchased DiscoverX scanMAX; host or cells: E. coli BL21-derived (T7 phage) or HEK-293

[4] = molecular target: T4, ITK (Homo sapiens, UniProt Q08881); test: KINOMEscan; details: read-out: %Ctrl @ 10000nM
T4 construct: purchased DiscoverX KINOMEscan

[5] = molecular target: T5, ABL1-nonphosphorylated (Homo sapiens, UniProt P00519); test: KINOMEscan; details: read-out: %Ctrl @ 10000nM
T5 construct: purchased DiscoverX KINOMEscan

[6] = molecular target: T6, RSK3(Kin.Dom.2-C-terminal) (Homo sapiens, UniProt Q15349); test: KINOMEscan; details: read-out: %Ctrl @ 10000nM
T6 construct: RSK3(Kin.Dom.2-C-terminal); purchased DiscoverX KINOMEscan

[7] = molecular target: T7, DYRK1B (Homo sapiens, UniProt Q9Y463); test: KINOMEscan; details: read-out: %Ctrl @ 10000nM
T7 construct: purchased DiscoverX KINOMEscan

[8] = molecular target: T8, PAK3 (Homo sapiens, UniProt O75914); test: KINOMEscan; details: read-out: %Ctrl @ 10000nM
T8 construct: purchased DiscoverX KINOMEscan

[9] = molecular target: T9, HIPK1 (Homo sapiens, UniProt Q86Z02); test: KINOMEscan; details: read-out: %Ctrl @ 10000nM
T9 construct: purchased DiscoverX KINOMEscan

[10] = molecular target: T10, KIT(V559D,T670I) (Homo sapiens, UniProt P10721, T670I/V559D); test: KINOMEscan; details: read-out: %Ctrl @ 10000nM
T10 construct: purchased DiscoverX KINOMEscan

[11] = molecular target: T11, CLK4 (Homo sapiens, UniProt Q9HAZ1); test: KINOMEscan; details: read-out: %Ctrl @ 10000nM
T11 construct: purchased DiscoverX KINOMEscan

[12] = molecular target: T12, CDK7 (Homo sapiens, UniProt P50613); test: KINOMEscan; details: read-out: %Ctrl @ 10000nM
T12 construct: purchased DiscoverX KINOMEscan

[13] = molecular target: T13, ZAK (Homo sapiens, UniProt Q9NYL2); test: KINOMEscan; details: read-out: %Ctrl @ 10000nM
T13 construct: purchased DiscoverX scanMAX; host or cells: E. coli BL21-derived host (T7 phage) or HEK-293

[14] = molecular target: T14, PRKR (Homo sapiens, UniProt P19525); test: KINOMEscan; details: read-out: %Ctrl @ 10000nM
T14 construct: purchased DiscoverX KINOMEscan

[15] = molecular target: T15, CDKL3 (Homo sapiens, UniProt Q8IVW4); test: KINOMEscan; details: read-out: %Ctrl @ 10000nM
T15 construct: purchased DiscoverX KINOMEscan

[16] = molecular target: T16, PIK3CG (Homo sapiens, UniProt P48736); test: KINOMEscan; details: read-out: %Ctrl @ 10000nM
T16 construct: purchased DiscoverX KINOMEscan

[17] = molecular target: T17, CIT (Homo sapiens, UniProt O14578); test: KINOMEscan; details: read-out: %Ctrl @ 10000nM
T17 construct: purchased DiscoverX KINOMEscan

[18] = molecular target: T18, GRK1 (Homo sapiens, UniProt Q15835); test: KINOMEscan; details: read-out: %Ctrl @ 10000nM
T18 construct: purchased DiscoverX KINOMEscan

[19] = molecular target: T19, NEK11 (Homo sapiens, UniProt Q8NG66); test: KINOMEscan; details: read-out: %Ctrl @ 10000nM
T19 construct: purchased DiscoverX KINOMEscan

[20] = molecular target: T20, PIK3CA(I800L) (Homo sapiens, UniProt P42336, I800L); test: KINOMEscan; details: read-out: %Ctrl @ 10000nM
T20 construct: purchased DiscoverX KINOMEscan

[21] = molecular target: T21, DAPK2 (Homo sapiens, UniProt Q9UIK4); test: KINOMEscan; details: read-out: %Ctrl @ 10000nM
T21 construct: purchased DiscoverX KINOMEscan

[22] = molecular target: T22, RSK2(Kin.Dom.2-C-terminal) (Homo sapiens, UniProt P51812); test: KINOMEscan; details: read-out: %Ctrl @ 10000nM
T22 construct: RSK2(Kin.Dom.2-C-terminal); purchased DiscoverX KINOMEscan

[23] = molecular target: T23, JAK2(JH1domain-catalytic) (Homo sapiens, UniProt O60674); test: KINOMEscan; details: read-out: %Ctrl @ 10000nM
T23 construct: JAK2(JH1domain-catalytic); purchased DiscoverX KINOMEscan

[24] = molecular target: T24, WNK2 (Homo sapiens, UniProt Q9Y3S1); test: KINOMEscan; details: read-out: %Ctrl @ 10000nM
T24 construct: DNA label for qPCR (T7 phage fusion or DNA tag); purchased DiscoverX scanMAX; host or cells: E. coli BL21-derived (T7 phage) or HEK-293

[25] = molecular target: T25, FLT1 (Homo sapiens, UniProt P17948); test: KINOMEscan; details: read-out: %Ctrl @ 10000nM
T25 construct: purchased DiscoverX KINOMEscan

[26] = molecular target: T26, EGFR(S752-I759del) (Homo sapiens, UniProt P00533, DEL752-759); test: KINOMEscan; details: read-out: %Ctrl @ 10000nM
T26 construct: purchased DiscoverX KINOMEscan

[27] = molecular target: T27, PKMYT1 (Homo sapiens, UniProt Q99640); test: KINOMEscan; details: read-out: %Ctrl @ 10000nM
T27 construct: purchased DiscoverX KINOMEscan

[28] = molecular target: T28, GRK3 (Homo sapiens, UniProt P35626); test: KINOMEscan KdELECT
T28 construct: DNA tag for qPCR (T7 phage fusion or DNA label); purchased DiscoverX KdELECT; host or cells: E. coli BL21-derived (T7 phage) or HEK-293

[29] = molecular target: T29, DRAK1 (Homo sapiens, UniProt Q9UEE5); test: KINOMEscan; details: read-out: %Ctrl @ 10000nM
T29 construct: purchased DiscoverX KINOMEscan

[30] = molecular target: T30, PIK3C2B (Homo sapiens, UniProt O00750); test: KINOMEscan; details: read-out: %Ctrl @ 10000nM
T30 construct: purchased DiscoverX KINOMEscan

[31] = molecular target: T31, CDK8 (Homo sapiens, UniProt P49336); test: KINOMEscan; details: read-out: %Ctrl @ 10000nM
T31 construct: purchased DiscoverX KINOMEscan

[32] = molecular target: T32, YANK1 (Homo sapiens, UniProt Q8WU08); test: KINOMEscan; details: read-out: %Ctrl @ 10000nM
T32 construct: DNA label for qPCR (T7 phage fusion or DNA tag); purchased DiscoverX scanMAX; host or cells: E. coli BL21-derived (T7 phage) or HEK-293

[33] = molecular target: T33, CAMK1 (Homo sapiens, UniProt Q14012); test: KINOMEscan; details: read-out: %Ctrl @ 10000nM
T33 construct: purchased DiscoverX KINOMEscan

[34] = molecular target: T34, WEE1 (Homo sapiens, UniProt P30291); test: KINOMEscan; details: read-out: %Ctrl @ 10000nM
T34 construct: DNA label for qPCR (T7 phage fusion or DNA tag); purchased DiscoverX scanMAX; host or cells: E. coli BL21-derived (T7 phage) or HEK-293

[35] = molecular target: T28, GRK3; test: KINOMEscan; details: read-out: %Ctrl @ 10000nM
[36] = molecular target: T35, SRMS (Homo sapiens, UniProt Q9H3Y6); test: KINOMEscan; details: read-out: %Ctrl @ 10000nM
T35 construct: purchased DiscoverX KINOMEscan

[37] = molecular target: T36, HIPK4 (Homo sapiens, UniProt Q8NE63); test: KINOMEscan; details: read-out: %Ctrl @ 10000nM
T36 construct: purchased DiscoverX KINOMEscan

[38] = molecular target: T37, DLK (Homo sapiens, UniProt Q12852); test: KINOMEscan; details: read-out: %Ctrl @ 10000nM
T37 construct: purchased DiscoverX KINOMEscan

[39] = molecular target: T38, CDK9 (Homo sapiens, UniProt P50750); test: KINOMEscan; details: read-out: %Ctrl @ 10000nM
T38 construct: purchased DiscoverX KINOMEscan

[40] = molecular target: T39, CLK3 (Homo sapiens, UniProt P49761); test: KINOMEscan; details: read-out: %Ctrl @ 10000nM
T39 construct: purchased DiscoverX KINOMEscan
T39 sequence (P49761 whole entry): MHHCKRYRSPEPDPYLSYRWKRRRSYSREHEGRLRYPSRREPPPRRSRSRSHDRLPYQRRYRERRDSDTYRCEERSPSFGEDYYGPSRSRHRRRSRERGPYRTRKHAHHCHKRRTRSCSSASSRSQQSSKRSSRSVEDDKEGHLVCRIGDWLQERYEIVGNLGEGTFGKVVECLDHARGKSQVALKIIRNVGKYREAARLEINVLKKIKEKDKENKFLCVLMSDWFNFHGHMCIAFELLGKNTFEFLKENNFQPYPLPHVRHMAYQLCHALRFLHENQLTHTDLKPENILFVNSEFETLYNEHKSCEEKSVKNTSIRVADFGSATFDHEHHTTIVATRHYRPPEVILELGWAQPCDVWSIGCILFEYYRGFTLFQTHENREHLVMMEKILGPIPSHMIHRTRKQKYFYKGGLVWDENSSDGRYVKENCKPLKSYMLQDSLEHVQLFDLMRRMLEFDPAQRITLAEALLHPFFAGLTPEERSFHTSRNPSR

T28 sequence (P35626 whole entry, the tested form may be a part): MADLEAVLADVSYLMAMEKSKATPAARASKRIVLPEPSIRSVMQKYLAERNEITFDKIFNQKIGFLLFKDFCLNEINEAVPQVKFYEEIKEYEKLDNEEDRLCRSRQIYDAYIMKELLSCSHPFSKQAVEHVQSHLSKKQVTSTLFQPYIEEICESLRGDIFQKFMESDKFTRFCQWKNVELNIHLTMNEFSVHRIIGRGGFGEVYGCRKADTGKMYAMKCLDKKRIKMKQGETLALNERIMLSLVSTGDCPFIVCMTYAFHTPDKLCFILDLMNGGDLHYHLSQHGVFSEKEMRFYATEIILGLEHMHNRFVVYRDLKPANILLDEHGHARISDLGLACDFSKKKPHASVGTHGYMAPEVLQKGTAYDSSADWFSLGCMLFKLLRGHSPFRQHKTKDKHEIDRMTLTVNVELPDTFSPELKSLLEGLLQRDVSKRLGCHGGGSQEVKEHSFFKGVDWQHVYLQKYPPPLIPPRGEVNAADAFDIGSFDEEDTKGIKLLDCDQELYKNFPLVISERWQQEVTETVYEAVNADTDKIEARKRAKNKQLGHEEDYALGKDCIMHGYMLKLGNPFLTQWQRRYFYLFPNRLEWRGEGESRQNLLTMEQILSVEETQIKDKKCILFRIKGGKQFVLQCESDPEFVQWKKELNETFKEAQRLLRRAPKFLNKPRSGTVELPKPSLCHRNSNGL
T2 sequence (Q13153 whole entry): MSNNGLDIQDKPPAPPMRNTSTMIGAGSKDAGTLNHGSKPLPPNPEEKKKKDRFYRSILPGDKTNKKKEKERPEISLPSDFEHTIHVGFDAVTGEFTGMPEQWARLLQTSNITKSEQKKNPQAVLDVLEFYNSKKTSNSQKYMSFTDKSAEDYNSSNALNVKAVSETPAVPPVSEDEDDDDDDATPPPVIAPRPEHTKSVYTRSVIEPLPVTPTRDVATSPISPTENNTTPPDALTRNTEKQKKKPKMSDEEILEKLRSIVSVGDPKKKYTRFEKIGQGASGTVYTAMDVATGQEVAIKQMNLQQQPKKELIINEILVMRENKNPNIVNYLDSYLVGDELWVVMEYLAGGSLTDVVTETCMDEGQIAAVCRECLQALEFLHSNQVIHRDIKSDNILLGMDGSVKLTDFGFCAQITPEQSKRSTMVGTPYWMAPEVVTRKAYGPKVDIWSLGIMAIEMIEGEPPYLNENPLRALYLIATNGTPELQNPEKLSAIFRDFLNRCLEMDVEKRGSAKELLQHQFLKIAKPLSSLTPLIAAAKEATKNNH
T15 sequence (Q8IVW4 whole entry): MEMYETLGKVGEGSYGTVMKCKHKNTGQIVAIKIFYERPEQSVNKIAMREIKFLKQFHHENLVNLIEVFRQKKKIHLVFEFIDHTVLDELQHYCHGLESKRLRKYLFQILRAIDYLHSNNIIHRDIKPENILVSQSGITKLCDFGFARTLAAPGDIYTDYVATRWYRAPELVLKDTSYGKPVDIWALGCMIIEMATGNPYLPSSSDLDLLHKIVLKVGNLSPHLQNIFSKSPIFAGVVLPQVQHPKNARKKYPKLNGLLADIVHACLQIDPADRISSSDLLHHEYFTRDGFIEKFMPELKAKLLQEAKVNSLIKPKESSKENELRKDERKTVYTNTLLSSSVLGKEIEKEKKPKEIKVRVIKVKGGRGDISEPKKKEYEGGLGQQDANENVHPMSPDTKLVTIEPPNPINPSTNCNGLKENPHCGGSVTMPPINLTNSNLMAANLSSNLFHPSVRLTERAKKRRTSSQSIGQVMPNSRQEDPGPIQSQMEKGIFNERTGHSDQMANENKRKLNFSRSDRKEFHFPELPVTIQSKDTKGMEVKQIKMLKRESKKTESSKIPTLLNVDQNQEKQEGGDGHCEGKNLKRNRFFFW
T12 sequence (P50613 whole entry): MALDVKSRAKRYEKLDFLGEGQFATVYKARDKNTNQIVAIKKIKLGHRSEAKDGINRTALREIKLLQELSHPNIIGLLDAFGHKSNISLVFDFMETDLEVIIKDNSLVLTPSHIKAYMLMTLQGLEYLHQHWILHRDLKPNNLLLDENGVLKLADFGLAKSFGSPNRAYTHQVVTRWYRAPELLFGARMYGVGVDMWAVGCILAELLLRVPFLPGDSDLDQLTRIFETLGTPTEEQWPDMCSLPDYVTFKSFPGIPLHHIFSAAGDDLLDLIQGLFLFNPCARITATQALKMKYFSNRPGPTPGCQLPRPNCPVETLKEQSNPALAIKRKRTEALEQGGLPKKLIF
T29 sequence (Q9UEE5 whole entry): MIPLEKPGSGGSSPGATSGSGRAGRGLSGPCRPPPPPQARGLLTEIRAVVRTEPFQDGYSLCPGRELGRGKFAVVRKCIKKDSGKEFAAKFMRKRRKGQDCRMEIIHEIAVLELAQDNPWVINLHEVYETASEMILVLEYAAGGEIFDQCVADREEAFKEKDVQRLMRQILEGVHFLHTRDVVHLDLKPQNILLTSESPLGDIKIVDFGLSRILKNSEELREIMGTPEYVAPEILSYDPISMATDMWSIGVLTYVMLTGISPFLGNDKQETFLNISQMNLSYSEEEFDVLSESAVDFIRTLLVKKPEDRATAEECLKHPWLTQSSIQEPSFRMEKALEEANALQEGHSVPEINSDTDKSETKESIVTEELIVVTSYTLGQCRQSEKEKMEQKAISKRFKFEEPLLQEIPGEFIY
T38 sequence (P50750 whole entry): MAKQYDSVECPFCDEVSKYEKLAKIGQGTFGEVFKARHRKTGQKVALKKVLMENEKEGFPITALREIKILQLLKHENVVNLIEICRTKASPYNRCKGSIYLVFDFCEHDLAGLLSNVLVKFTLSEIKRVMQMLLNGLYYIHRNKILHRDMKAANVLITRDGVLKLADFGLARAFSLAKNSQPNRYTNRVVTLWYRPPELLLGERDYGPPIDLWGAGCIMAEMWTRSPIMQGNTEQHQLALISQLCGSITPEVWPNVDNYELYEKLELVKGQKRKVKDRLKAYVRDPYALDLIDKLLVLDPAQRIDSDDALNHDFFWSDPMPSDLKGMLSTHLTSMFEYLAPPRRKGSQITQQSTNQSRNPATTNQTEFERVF
T20 sequence (P42336 whole entry I800L): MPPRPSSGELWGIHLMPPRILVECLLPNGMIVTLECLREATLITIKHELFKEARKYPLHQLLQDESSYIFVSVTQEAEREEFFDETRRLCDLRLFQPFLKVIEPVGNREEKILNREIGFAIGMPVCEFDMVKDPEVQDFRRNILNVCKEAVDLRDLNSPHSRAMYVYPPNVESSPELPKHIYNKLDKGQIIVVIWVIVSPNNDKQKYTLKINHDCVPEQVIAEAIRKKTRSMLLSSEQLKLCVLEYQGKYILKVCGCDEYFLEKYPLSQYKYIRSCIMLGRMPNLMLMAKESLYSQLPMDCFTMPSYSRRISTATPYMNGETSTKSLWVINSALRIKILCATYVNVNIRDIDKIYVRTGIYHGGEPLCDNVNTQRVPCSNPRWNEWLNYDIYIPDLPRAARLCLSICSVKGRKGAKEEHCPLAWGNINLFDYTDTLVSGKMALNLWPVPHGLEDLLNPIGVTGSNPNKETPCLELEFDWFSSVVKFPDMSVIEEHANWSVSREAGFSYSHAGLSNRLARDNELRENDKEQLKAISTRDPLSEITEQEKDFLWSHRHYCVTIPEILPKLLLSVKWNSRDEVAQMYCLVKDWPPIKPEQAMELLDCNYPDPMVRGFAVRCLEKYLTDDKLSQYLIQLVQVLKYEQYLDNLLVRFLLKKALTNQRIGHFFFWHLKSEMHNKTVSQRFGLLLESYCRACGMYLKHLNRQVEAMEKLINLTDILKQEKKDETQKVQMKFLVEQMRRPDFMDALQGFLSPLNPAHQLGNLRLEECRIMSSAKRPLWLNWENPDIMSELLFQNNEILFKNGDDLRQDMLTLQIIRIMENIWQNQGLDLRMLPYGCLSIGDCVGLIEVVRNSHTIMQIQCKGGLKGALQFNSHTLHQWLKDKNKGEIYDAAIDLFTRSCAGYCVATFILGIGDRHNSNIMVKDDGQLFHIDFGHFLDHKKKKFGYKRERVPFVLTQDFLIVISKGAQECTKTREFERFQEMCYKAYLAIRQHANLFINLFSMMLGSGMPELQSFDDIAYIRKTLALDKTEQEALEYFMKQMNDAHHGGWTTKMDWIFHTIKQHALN
T23 sequence (O60674 840-1132 limits assumed): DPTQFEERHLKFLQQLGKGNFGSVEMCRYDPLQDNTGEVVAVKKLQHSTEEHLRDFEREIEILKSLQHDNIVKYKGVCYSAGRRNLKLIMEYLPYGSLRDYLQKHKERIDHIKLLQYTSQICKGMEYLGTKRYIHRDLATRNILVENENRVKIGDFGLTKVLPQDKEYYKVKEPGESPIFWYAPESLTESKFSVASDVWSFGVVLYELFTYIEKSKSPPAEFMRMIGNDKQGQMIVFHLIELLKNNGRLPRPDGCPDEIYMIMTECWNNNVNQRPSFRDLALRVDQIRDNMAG

Molecule `CC(C)c1ccc(CC(=O)N2CCN(c3ccc(C#N)nn3)CC2)cc1` [PZ-2891, 6-(4-(2-(4-isopropylphenyl)acetyl)piperazin-1-yl)pyridazine-3-carbonitrile] has a remaining binding at 10 µM [1] of 80%, a remaining binding at 10 µM [2] of 76% and a remaining binding at 10 µM [3] of 100%. For the same molecule, the remaining binding at 10 µM [4] was 89%, the remaining binding at 10 µM [5] was 65% and the remaining binding at 10 µM [6] was 66%. For the same molecule, the remaining binding at 10 µM [7] was 66%, the remaining binding at 10 µM [8] was 88% and the remaining binding at 10 µM [9] was 61%. The remaining binding at 10 µM [10] was 94%, the remaining binding at 10 µM [11] was 98% and the remaining binding at 10 µM [12] was 79%. For the same molecule, the remaining binding at 10 µM [13] was 88%, the remaining binding at 10 µM [14] was 100% and the remaining binding at 10 µM [15] was 86%. The remaining binding at 10 µM [16] was 96%, the remaining binding at 10 µM [17] was 97% and the remaining binding at 10 µM [18] was 72%. For the same molecule, the remaining binding at 10 µM [19] was 99%, the remaining binding at 10 µM [20] was 42% and the remaining binding at 10 µM [21] was 95%. For the same molecule, the remaining binding at 10 µM [22] was 89%, the remaining binding at 10 µM [23] was 88% and the remaining binding at 10 µM [24] was 87%. It also gave a remaining binding at 10 µM [25] of 100%, a remaining binding at 10 µM [26] of 100% and a remaining binding at 10 µM [27] of 100%. It also gave a Kd [28] greater than 30 µM, a remaining binding at 10 µM [29] of 99% and a remaining binding at 10 µM [30] of 100%. It also gave a remaining binding at 10 µM [31] of 83%, a remaining binding at 10 µM [32] of 74% and a remaining binding at 10 µM [33] of 93%. It also gave a remaining binding at 10 µM [34] of 92%, a remaining binding at 10 µM [35] of 35% and a remaining binding at 10 µM [36] of 72%. The remaining binding at 10 µM [37] was 94%, the remaining binding at 10 µM [38] was 100% and the remaining binding at 10 µM [39] was 98%. For the same molecule, the remaining binding at 10 µM [40] was 93%.
